Like-named read-outs stand apart in the source and are kept apart here.
Experiments:
[1] = target: T1, human CB2 receptor (Homo sapiens (Human), UniProt P34972); test: CB2 receptor cAMP assay (DiscoverX HitHunter cAMP XS+); format: cell-based
Procedure: cAMP Hunter CHO-K-1 cell lines expressing human CB2 receptor (Eurofins) were expanded from freezer stocks according to standard procedures. Cells were seeded in a total volume of 20 μL into white walled, 384-well microplates and incubated at 37° C. for the appropriate time prior to testing. cAMP modulation in agonist, inverse agonist or antagonist format was determined using the DiscoverX HitHunter cAMP XS+ assay (Eurofins). For agonist determination, cells were incubated with sample in the presence of EC80 forskolin to induce response. Media was aspirated from cells and replaced with 15 μL 2:1 HBSS/10 mM Hepes: cAMP XS+Ab reagent. Intermediate dilution of sample stocks was performed to generate 4× sample in assay buffer containing 4× EC80 forskolin. 5 μL of 4× sample was added to cells and incubated at 37° C. or room temperature for 30 or 60 minutes. Final assay vehicle concentration was 1%. For inverse agonist determination, cells were preincubated with sample in the presence of EC20 forskolin. Media was aspirated from cells and replaced with 15 μL, 2:1 HBSS/10 mM Hepes: cAMP XS+Ab reagent. Intermediate dilution of sample stocks was performed to generate 4× sample in assay buffer containing 4× EC20 forskolin. 5 μL of 4× sample was added to cells and incubated at 37° C. or room temperature for 30 or 60 minutes. Final assay vehicle concentration was 1%. For antagonist determination, cells were pre-incubated with sample followed by agonist challenge at the EC80 concentration. Media was aspirated from cells and replaced with 10 μL 1:1 HBSS/Hepes: cAMP XS+Ab reagent. 5 μL of 4× compound was added to the cells and incubated at 37° C. or room temperature for 30 minutes. 5 μL of 4× EC80 agonist was added to cells and incubated at 37° C. or room temperature for 30 or 60 minutes. EC80 forksolin was included. After appropriate compound incubation, assay signal was generated through incubation with 20 μL cAMP XS+ED/CL lysis cocktail for one hour followed by incubation with 20 μL, cAMP XS+EA reagent for three hours at room temperature. Microplates were read following signal generation with a PerkinElmer Envision instrument for chemiluminescent signal detection. Compound activity was analyzed using CBIS data analysis suite (ChemInnovation, CA). For agonist mode assay, percentage activity is calculated using the following formula: % Activity=100%×(1−(mean RLU of test sample−mean RLU of MAX control)/(mean RLU of vehicle control−mean RLU of MAX control)). For inverse agonist mode assay, percentage activity is calculated using the following formula: % Inverse Agonist Activity=100%×((mean RLU of test sample−mean RLU of EC20 forskolin)/(mean RLU of forskolin positive control−mean RLU of EC20 control)). For antagonist mode assay, percentage inhibition is calculated using the following formula: % Inhibition=100%×(mean RLU of test sample−mean RLU of EC80 control)/(mean RLU of forskolin positive control−mean RLU of EC80 control). Data are analyzed and IC50 is calculated using GraphPad Prism 5 and the model “log(inhibitor) vs. response—Variable slope”.

[2] = target: T1, human CB2 receptor; test: CB2 receptor binding assay ([3H]CP-55,940 displacement, HEK-293 membranes)
[3] = target: human recombinant CB1R (Homo sapiens (Human), UniProt P21554); test: CB1 receptor binding assay ([3H]CP-55,940 displacement, HEK-293 membranes); conditions: membranes of HEK-293 cells with human recombinant CB1R, [3H]CP-55,940, read-out: CB1 IC50
Procedure, shortened: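 Membranes from HEK-293 cells expressing human recombinant CB1R or CB2R were incubated with [3H]CP-55,940 and compound for 120 min at 37 °C in duplicate. The CB2R incubation buffer was 50 mM Tris-HCl, 5 mM MgCl2, 1 mM CaCl2, 0.2% BSA, pH 7.4. Bound radioactivity was filtered and counted, and IC50 was converted to Ki by Cheng–Prusoff.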

[4] = membranes of HEK-293 cells with human recombinant CB2R, [3H]CP-55,940, class symbols, read-out: CB2 IC50
[5] = membranes of HEK-293 cells with human recombinant CB2R, [3H]CP-55,940, read-out: CB2 IC50

human recombinant CB1R, sequence (P21554 whole entry): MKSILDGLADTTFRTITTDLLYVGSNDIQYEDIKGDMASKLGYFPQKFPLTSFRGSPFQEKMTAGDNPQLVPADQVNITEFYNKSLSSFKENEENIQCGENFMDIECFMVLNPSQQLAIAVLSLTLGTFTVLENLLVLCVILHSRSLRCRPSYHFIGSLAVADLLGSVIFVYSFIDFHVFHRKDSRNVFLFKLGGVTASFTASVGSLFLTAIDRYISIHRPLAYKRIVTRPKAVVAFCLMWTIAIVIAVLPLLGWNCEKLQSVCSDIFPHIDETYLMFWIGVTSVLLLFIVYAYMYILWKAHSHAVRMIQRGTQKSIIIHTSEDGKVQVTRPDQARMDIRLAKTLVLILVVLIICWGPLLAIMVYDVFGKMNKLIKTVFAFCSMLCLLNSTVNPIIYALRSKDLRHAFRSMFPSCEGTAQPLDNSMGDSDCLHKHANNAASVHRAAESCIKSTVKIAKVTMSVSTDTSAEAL
T1 sequence (P34972 whole entry): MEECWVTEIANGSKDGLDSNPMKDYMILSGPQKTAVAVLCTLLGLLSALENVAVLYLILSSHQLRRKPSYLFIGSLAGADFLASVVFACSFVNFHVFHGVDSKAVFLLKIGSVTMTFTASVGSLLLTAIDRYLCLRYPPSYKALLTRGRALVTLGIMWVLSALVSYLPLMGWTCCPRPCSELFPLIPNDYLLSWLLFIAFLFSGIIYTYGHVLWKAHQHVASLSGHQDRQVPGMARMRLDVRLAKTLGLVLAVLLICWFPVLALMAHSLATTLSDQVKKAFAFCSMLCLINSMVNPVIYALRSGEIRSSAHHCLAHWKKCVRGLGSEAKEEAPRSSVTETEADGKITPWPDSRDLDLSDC

| SMILES | IC50 [2, 4] [nM] | IC50 ([3]; class symbols) [nM] | IC50 [2] [nM] | other results |
| --- | --- | --- | --- | --- |
| N#Cc1ccc(C2(NC(=O)c3cc4cc(Br)cnc4n(Cc4ccc(F)cc4)c3=O)CC2)cc1 [Compound 92, 6-bromo-N-(1-(4-cyanophenyl)cyclopropyl)-1-(4-fluorobenzyl)-2-oxo-1,2-dihydro-1,8-naphthyridine-3-carboxamide] | < 100 | – | – | IC50 [1]: 3.6 nM; Emax ([1]; CHO-K1, read-out: Max Stimulation %): 108% |
| COc1ccc(-c2cnc3c(c2)c(O)c(C(=O)N[C@H](C)c2ccc(F)cc2)c(=O)n3CCN2CCOCC2)cc1 [Compound 150, (R)—N-(1-(4-fluorophenyl)ethyl)-4-hydroxy-6-(4-methoxyphenyl)-1-(2-morpholinoethyl)-2-oxo-1,2-dihydro-1,8-naphthyridine-3-carboxamide] | – | > 1000 | 100 to 999 | – |
| C[C@H]1CC[C@@H](NC(=O)c2c(O)c3cccnc3n(Cc3ccc(F)cc3)c2=O)CC1 [Compound 143, 1-(4-fluorobenzyl)-4-hydroxy-N-((1s, 4s)-4-methylcyclohexyl)-2-oxo-1,2-dihydro-1,8-naphthyridine-3-carboxamide] | – | – | – | IC50 [3]: 3360 nM; IC50 [2, 5]: 34 nM |
| Cc1c(C(=O)NC2CC3(CCC3)C2)c(=O)n(Cc2ccc(F)cc2)c2ncc(Br)cc12 [Compound 76, 6-bromo-1-(4-fluorobenzyl)-4-methyl-2-oxo-N-(spiro[3.3]heptan-2-yl)-1,2-dihydro-1,8-naphthyridine-3-carboxamide] | < 100 | > 1000 | – | – |
| Cc1c(C(=O)NC2CCC(C)CC2)c(=O)n(CCN2CCOCC2)c2ncc(Br)cc12 (stereo not shown) [Compound 72, 6-bromo-4-methyl-N-(4-methylcyclohexyl)-1-(2-morpholinoethyl)-2-oxo-1,2-dihydro-1,8-naphthyridine-3-carboxamide] | < 100 | > 1000 | – | – |
| COc1ccc(-c2cnc3c(c2)c(O)c(C(=O)N[C@H]2CC[C@@H](C)CC2)c(=O)n3CCN2CCOCC2)cc1 [Compound 149, 4-hydroxy-6-(4-methoxyphenyl)-N-((1s,4S)-4-methylcyclohexyl)-1-(2-morpholinoethyl)-2-oxo-1,2-dihydro-1,8-naphthyridine-3-carboxamide] | < 100 | > 1000 | – | – |
| CC(C)(CO)NC(=O)c1c(O)c2cccnc2n(Cc2ccc(F)cc2)c1=O [Compound 140, 1-[(4-fluorophenyl)methyl]-4-hydroxy-N-(2-hydroxy-1,1-dimethyl-ethyl)-2-oxo-1,8-naphthyridine-3-carboxamide] | – | > 1000 | 100 to 999 | – |
| CS(=O)(=O)c1ccc(-c2cnc3c(c2)cc(C(=O)NC2CC4(CCC4)C2)c(=O)n3Cc2ccc(F)cc2)cc1 [Compound 68, 1-(4-fluorobenzyl)-6-(4-(methylsulfonyl)phenyl)-2-oxo-N-(spiro[3.3]heptan-2-yl)-1,2-dihydro-1,8-naphthyridine-3-carboxamide] | – | > 1000 | 100 to 999 | – |
| CC(C)c1cnc2c(c1)cc(C(=O)NC13CC(C1)C3)c(=O)n2Cc1ccc(F)cc1 [Compound 84, N-(bicyclo[1.1.1]pentan-1-yl)-1-(4-fluorobenzyl)-6-isopropyl-2-oxo-1,2-dihydro-1,8-naphthyridine-3-carboxamide] | – | – | – | IC50 [3]: 413 nM; IC50 [2, 5]: 3.7 nM |
| O=C(NC12CC(C1)C2)c1cc2cc(-c3ccc(OC(F)F)cc3)cnc2n(CCN2CCOCC2)c1=O [Compound 54, N-(bicyclo[1.1.1]pentan-1-yl)-6-(4-(difluoromethoxy)phenyl)-1-(2-morpholinoethyl)-2-oxo-1,2-dihydro-1,8-naphthyridine-3-carboxamide] | < 100 | > 1000 | – | – |
| CC(NC(=O)c1c(O)c2cc(-c3ccc(C#N)cn3)cnc2n(CCN2CCOCC2)c1=O)c1ccc(F)cc1 (stereo not shown) [Compound 21, 6-(5-cyanopyridin-2-yl)-N-(1-(4-fluorophenyl)ethyl)-4-hydroxy-1-(2-morpholinoethyl)-2-oxo-1,2-dihydro-1,8-naphthyridine-3-carboxamide] | – | > 1000 | 100 to 999 | – |
| O=C(NC1(CO)CCCCC1)c1c(O)c2cccnc2n(Cc2ccc(F)cc2)c1=O [Compound 145, 1-[(4-fluorophenyl)methyl]-4-hydroxy-N-[1-(hydroxymethyl)cyclohexyl]-2-oxo-1,8-naphthyridine-3-carboxamide] | < 100 | > 1000 | – | – |
| CC(C)c1cnc2c(c1)cc(C(=O)NC1(c3ccc(C#N)cc3)CC1)c(=O)n2Cc1ccc(F)cc1 [Compound 86, N-(1-(4-cyanophenyl)cyclopropyl)-1-(4-fluorobenzyl)-6-isopropyl-2-oxo-1,2-dihydro-1,8-naphthyridine-3-carboxamide] | < 100 | > 1000 | – | – |
| COc1ccc(-c2cnc3c(c2)c(O)c(C(=O)NC2CCCCC2)c(=O)n3CCN2CCOCC2)cc1 [Compound 152, N-cyclohexyl-4-hydroxy-6-(4-methoxyphenyl)-1-(2-morpholinoethyl)-2-oxo-1,2-dihydro-1,8-naphthyridine-3-carboxamide] | – | > 1000 | 100 to 999 | – |
| Cc1c(C(=O)NC2CC3(CCC3)C2)c(=O)n(Cc2ccc(C#N)cc2)c2ncc(Br)cc12 [Compound 77, 6-bromo-1-(4-cyanobenzyl)-4-methyl-2-oxo-N-(spiro[3.3]heptan-2-yl)-1,2-dihydro-1,8-naphthyridine-3-carboxamide] | – | > 1000 | 100 to 999 | – |
| CC(C)c1cnc2c(c1)cc(C(=O)N[C@H](C)c1ccc(C#N)cc1)c(=O)n2Cc1ccc(F)cn1 [Compound 108, (R)—N-(1-(4-cyanophenyl)ethyl)-1-((5-fluoropyridin-2-yl)methyl)-6-isopropyl-2-oxo-1,2-dihydro-1,8-naphthyridine-3-carboxamide] | – | > 1000 | 100 to 999 | – |
| O=C(NC1CC2(CCC2)C1)c1cc2cc(-c3ccc(OC4CC4)cc3)cnc2n(Cc2ccc(F)cc2)c1=O [Compound 67, 6-(4-cyclopropoxyphenyl)-1-(4-fluorobenzyl)-2-oxo-N-(spiro[3.3]heptan-2-yl)-1,2-dihydro-1,8-naphthyridine-3-carboxamide] | > 1000 | > 1000 | – | – |
| C[C@H](NC(=O)c1cc2cc(Br)cnc2n(Cc2ccc(F)cc2)c1=O)c1ccc(F)cc1 [Compound 90, (S)-6-bromo-1-(4-fluorobenzyl)-N-(1-(4-fluorophenyl)ethyl)-2-oxo-1,2-dihydro-1,8-naphthyridine-3-carboxamide] | – | – | – | IC50 [3]: 348 nM; IC50 [2, 5]: 11 nM |
| O=C(NC1CC2(CCC2)C1)c1cc2cc(-c3ccc(F)cc3)cnc2n(CCN2CCOCC2)c1=O [Compound 32, 6-(4-fluorophenyl)-1-(2-morpholinoethyl)-2-oxo-N-(spiro[3.3]heptan-2-yl)-1,2-dihydro-1,8-naphthyridine-3-carboxamide] | – | – | – | IC50 [3]: 39 nM; IC50 [2, 5]: 0.8 nM |
| Cc1ccc(NC(=O)c2cc3cc(Br)cnc3n(Cc3ccc(F)cc3)c2=O)cc1 [Compound 71, 6-bromo-1-(4-fluorobenzyl)-2-oxo-N-(p-tolyl)-1,2-dihydro-1,8-naphthyridine-3-carboxamide] | > 1000 | > 1000 | – | – |
| O=C(Nc1ccccn1)c1cc2cc(Br)cnc2n(Cc2ccc(F)cc2)c1=O [Compound 70, 6-bromo-1-(4-fluorobenzyl)-2-oxo-N-(pyridin-2-yl)-1,2-dihydro-1,8-naphthyridine-3-carboxamide] | < 100 | > 1000 | – | – |

Reference: patent US11564928B1, “Cannabinoid receptor type 2 (CB2) modulators and uses thereof” (Teon Therapeutics, Inc., priority 2020, dated 2023)
